# US20240109893A1, “PREPARATION AND APPLICATION METHOD OF HETEROCYCLIC COMPOUNDS AS KRAS INHIBITOR” (SHANGHAI KECHOW PHARMA, INC., priority 2020, published 2024)
# pIC50: −log10 of the molar value.
# How the values were obtained:
# [1] = system: H358 cells; assay: Cell activity experiment: activity test of H358 cells (MTT, 5 days); type: cell-based; details: 5 days incubation, absorbance 492 nm
# Procedure, shortened: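 H358 cells seeded 90 μL at 55555 cells/mL, grown 24 h, then exposed to 3-fold serial compound dilutions (final top 10000 nM, 0.5% DMSO) in triplicate for 5 days at 37° C., 5% CO2. Viability by MTT (4 h), formazan dissolved in DMSO, absorbance at 492 nm.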
# [2] = molecular target: KRAS G12C-GDP (Homo sapiens (Human), UniProt P01116, G12C); assay: KRAS G12C-GDP exchange test (SOS/cRAF/GTP, HTRF); type: biochemical; details: 1 h premix with compound, 2 h reaction with SOS, cRAF, GTP
# Description: 2. A mixture of SOS (Pharmaron, ZZY-20190823), cRAF (Pharmaron, ZZY-20190823), GTP (Sigma, A6885-100MG), MAb Anti 6HIS-d2/MAb Anti GST-Eu (Cisbio, 61HISDLB/61GSTKLB) was added for a catalyzed reaction for 2 h.
# 3. The fluorescence signals of the emitted light at 615 nm and 665 nm under 320 nm excitation light were read by Biotek Microplate Reader (Synergy4).
# 4. The IC50 (median inhibitory concentration) of the compound was obtained by the following non-linear fitting formula: Y=Bottom+(Top−Bottom)/(1+10^((Log IC50−X)*Hill Slope)), and the data were analyzed by Graphpad 6-0 software.
Molecule,pIC50 [1],pIC50 [2],"pIC50 ([1]; Homo sapiens, NCI-H358, 120 h)"
2-((S)-1-acryloyl-4-(6-fluoro-7-(8-chloro-7- fluoronaphthalen-1-yl)-2-(((S)-1-methylpyrrolidin-2- yl))methoxy)quinazolin-4-yl)piperazin-2-yl)acetonitrile [Example 395],7.21,8.88,–
"C=CC(=O)N1CCN(c2nc(OC[C@@H]3CCCN3C)nc3nc(-c4cccc5cccc(Cl)c45)ccc23)C[C@@H]1CC#N [Example 254, 2-((S)-1-acryloyl-4-(7-(8-chloronaphthalen-1-yl)-2-(((S)-1-methylpyrrolidin-2-yl)methoxy)pyridino[2,3-d]pyrimidin-4-yl)piperazin-2-yl)acetonitrile]",–,8.05,7.52
"C=C(F)C(=O)N1CCN(c2nc(OCC34CCCN3CCC4)nc3c(F)c(-c4cccc5c4CCCC5)ncc23)C[C@@H]1CC#N [Example 3, (S)-2-(4-(8-fluoro-2-((tetrahydro-1H-pyrrolizin-7a(5H)-yl)methoxy)-7-(5,6,7,8-tetrahydronaphthalen-1-yl)pyridino[4,3-d]pyrimidin-4-yl)-1-(2-fluoroacryloyl)piperazin-2-yl)acetonitrile]",–,7.86,8.46
"C=CC(=O)N1CCN(c2nc(OC[C@@H]3CCCN3C)nc3c(F)c(-c4cccc5c4CC4CC54)ncc23)C[C@@H]1CC#N (single isomer, unassigned) [Example 873]",7.92,9.10,–
"C=CC(=O)N1CCN(c2nc(OC[C@@H]3CCCN3C)nc3nc(-c4cccc5c4CCCC5)ccc23)C[C@@H]1CC#N [Example 286, 2-((S)-1-acryloyl-4-(2-(((S)-1-methylpyrrolidin-2-yl)methoxy)-7-(5,6,7,8-tetrahydronaphthalen-1-yl)pyridino[2,3-d]pyrimidin-4-yl)piperazin-2-yl)acetonitrile]",6.45,8.00,–
"C=C(F)C(=O)N1CCN(c2nc(OC[C@@H]3CCCN3C)nc3c(F)c(-c4cccc5c4CC4CC54)ccc23)C[C@@H]1CC#N (single isomer, unassigned) [Example 883]",7.97,9.31,–
"C=CC(=O)N1CCN(c2nc(OC[C@@H]3CCCN3C)nc3cc(-c4cccc5ccc(F)c(Cl)c45)cnc23)C[C@@H]1CC#N [Example 840, 2-((S)-1-acryloyl-4-(7-(8-chloro-7-fluoronaphthalen-1-yl)-2-(((S)-1-methylpyrrolidin-2-yl)methoxy)pyridino[3,2-d]pyrimidin-4-yl)piperazin-2-yl)acetonitrile]",–,8.34,6.09
"C=CC(=O)N1CCN(c2nc(OCC3(CN4CCCC4)CC3)nc3c(F)c(-c4cccc5cccc(Cl)c45)ncc23)C[C@@H]1CC#N [Example 854, (S)-2-(1-acryloyl-4-(7-(8-chloronaphthalen-1-yl)-8-fluoro-2-((1-(pyrrolidin-1-ylmethyl)cyclopropyl)methoxy)pyridino[4,3-d]pyrimidin-4-yl)piperazin-2-yl)acetonitrile]",–,9.23,8.36
"C=CC(=O)N1CCN(c2nc(OC[C@@H]3CCCN3C)nc3cc(-c4cccc5cccc(Cl)c45)ccc23)C[C@@H]1CC#N [Example 73, 2-((S)-1-acryloyl-4-(7-(8-chloronaphthalen-1-yl)-2-(((S)-1-methylpyrrolidin-2-yl)methoxy)quinazolin-4-yl)piperazin-2-yl)acetonitrile]",–,8.87,7.82
"C=CC(=O)N1CCN(c2nc(OC[C@@H]3CCCN3C)nc3c(F)c(-c4cccc5c4CC4CC54)ccc23)C[C@@H]1CC#N (single isomer, unassigned) [Example 881]",8.47,9.15,–
C=C(F)C(=O)N1CCN(c2nc(OCC34CCCN3CCC4)nc3c(F)c(-c4ccc(F)c5c4CCCC5)ncc23)C[C@@H]1CC#N [Example 22],–,–,7.70
"C=C(F)C(=O)N1CCN(c2nc(OCC3(CN4CCCC4)CC3)nc3c(F)c(-c4cccc5c4C4CC4C5)ccc23)C[C@@H]1CC#N (single isomer, unassigned) [Example 870]",–,–,8.14
C=C(F)C(=O)N1CCN(c2nc(OC[C@@H]3C[C@@H](F)CN3C)nc3c(F)c(-c4cncc5cccc(Cl)c45)ccc23)C[C@@H]1CC#N [Example 161],–,–,7.70
C=CC(=O)N1CC[C@@H]2[C@H]1CN2c1nc(OC[C@@H]2CCCN2C)nc2c(F)c(-c3ccc(F)c4c3CCCC4)ncc12 [Example 25],–,–,8.00
C=CC(=O)N1CCN(c2nc(OC[C@@H]3C[C@@H](F)CN3C)nc3cc(-c4cccc5c4CCCC5)c(Cl)cc23)C[C@@H]1CC#N [Example 467],–,–,7.10
C=CC(=O)N1CCN(C2=C(C#N)C(OC[C@@H]3CCCN3C)=NC3C=C(c4cccc5ccc(F)c(Cl)c45)C=CC23)C[C@@H]1CC#N (stereo partly drawn) [Example 623],–,–,6.70

Molecule,pIC50 [1],pIC50 [2],"pIC50 ([1]; Homo sapiens, NCI-H358, 120 h)"
"C=C(F)C(=O)N1CCN(c2nc(OC[C@@]34CCCN3C[C@H](F)C4)nc3c(OC4CC4)c(-c4cccc5c4CC4CC54)c(Cl)cc23)C[C@@H]1CC#N (single isomer, unassigned) [Example 918]",7.40,–,–
"C=CC(=O)N1CCN(c2nc(OC[C@@H]3CCCN3C)nc3c(F)c(-c4cncc5cccc(Cl)c45)ccc23)C[C@@H]1CC#N [Example 158, 2-((S)-1-acryloyl-4-(7-(5-chloroisoquinolin-4-yl)-8-fluoro-2-(((S)-1-methylpyrrolidin-2-yl)methoxy)quinazolin-4-yl)piperazin-2-yl)acetonitrile]",–,–,8.40
C=CC(=O)N1CC[C@H]2[C@H]1CN2c1nc(OC[C@@]23CCCN2C[C@H](F)C3)nc2cc(-c3cccc4ccc(F)c(Cl)c34)c(Cl)cc12 [Example 475],7.60,–,–
C=C(F)C(=O)N1CCN(C2=C(C#N)C(OC[C@@H]3CCCN3C)=NC3C=C(c4cccc5ccc(F)c(Cl)c45)C=CC23)C[C@@H]1CC#N (stereo partly drawn) [Example 624],–,–,6.10
"C=CC(=O)N1CCN(c2nc(OC[C@@H]3CCCN3C)nc3c(F)c(-c4ccc(F)c5c4SCCC5)ncc23)C[C@@H]1CC#N [Example 54, 2-((S)-1-acryloyl-4-(8-fluoro-7-(5-fluorothiochroman-8-yl)-2-(((S)-1-methylpyrrolidin-2-yl)methoxy)pyridino[4,3-d]pyrimidin-4-yl)piperazin-2-yl)acetonitrile]",–,–,7.15
C=CC(=O)N1CCN(c2nc(OC[C@@H]3CCCN3C)nc3c(F)c(N4CCc5cc(F)ccc54)ccc23)CC1 [Example 617],–,–,6.05
"C=C(F)C(=O)N1CCN(c2nc(OC[C@@H]3CCCN3C)nc3c(F)c(-c4cccc5c4[C@@H]4C[C@@H]4C5)ncc23)C[C@@H]1CC#N [Example 59, 2-((S)-4-(8-fluoro-2-(((S)-1-methylpyrrolidin-2-yl)methoxy)-7-((1aR,6aR)-1,1a,6,6a-tetrahydrocyclopropa[a]inden-2-yl)pyridino[4,3-d]pyrimidin-4-yl)-1-(2-fluoroacryloyl)piperazin-2-yl)acetonitrile]",–,–,6.85
"C=CC(=O)N1CC[C@@H]2[C@H]1CN2c1nc(OCC23CCCN2CCC3)nc2c(F)c(-c3cccc4c3CCCC4)ncc12 [Example 13, 1-((1R,5R)-6-(8-fluoro-2-((tetrahydro-1H-pyrrolizin-7a(5H)-yl)methoxy)-7-(5,6,7,8-tetrahydronaphthalen-1-yl)pyridino[4,3-d]pyrimidin-4-yl)-2,6-diazabicyclo[3.2.0]hept-2-yl)prop-2-en-1-one]",–,–,8.30
C=C(F)C(=O)N1CCN(c2nc(OC[C@@H]3CCCN3C)nc3c(F)c(-c4cccc5c4CC4CC54)ccc23)C[C@@H]1CC#N (stereo partly drawn) [Example 872],8.08,–,–
"C=C(F)C(=O)N1CCN(c2nc(OCC34CCCN3CCC4)nc3nc(-c4cccc5cccc(Cl)c45)ccc23)C[C@@H]1CC#N [Example 259, (S)-2-(4-(7-(8-chloronaphthalen-1-yl)-2-((tetrahydro-1H-pyrrolizin-7a(5H)-yl)methoxy)pyridino[2,3-d]pyrimidin-4-yl)-1-(2-fluoroacryloyl)piperazin-2-yl)acetonitrile]",–,–,7.51
C=C(F)C(=O)N1CC[C@@H]2[C@H]1CN2c1nc(OC[C@@]23CCCN2C[C@H](F)C3)nc2c(F)c(-c3cncc4c3CCCC4)ncc12 [Example 48],–,–,7.70
C=CC(=O)N1CCN(c2nc(OCC34CCCN3CCC4)nc3cc(-c4cccc5cccc(Cl)c45)ccc23)C[C@@H]1CC#N [Example 81],–,–,8.26
C=C(F)C(=O)N1CCN(c2nc(OC[C@@]34CCCN3C[C@H](F)C4)nc3c(OC4CC4)c(-c4cccc5cccc(Cl)c45)c(Cl)cc23)C[C@@H]1CC#N [Example 916],–,–,7.43
"C=CC(=O)N1CCN(c2nc(OCC34CCCN3CCC4)nc3c(F)c(-c4cncc5c4CCCC5)ncc23)C[C@@H]1CC#N [Example 37, (S)-2-(1-acryloyl-4-(8-fluoro-2-((tetrahydro-1H-pyrrolizin-7a(5H)-yl)methoxy)-7-(5,6,7,8-tetrahydroisoquinolin-4-yl)pyridino[4,3-d]pyrimidin-4-yl)piperazin-2-yl)acetonitrile]",–,–,7.82
C=CC(=O)N1CCN(C2=C(C#N)C(OC[C@@H]3C[C@@H](F)CN3C)=NC3C=C(c4cccc5ccc(F)c(Cl)c45)C=CC23)C[C@@H]1CC#N (stereo partly drawn) [Example 625],–,–,6.07
C=CC(=O)N1CCN(c2nc(OC[C@@H]3CCCN3C)nc3cc(N4CCCc5cccc(Cl)c54)ccc23)C[C@@H]1CC#N [Example 618],–,–,6.70
